Measured values: ChEMBL document CHEMBL3414527, “Engineering potent and selective analogues of GpTx-1, a tarantula venom peptide antagonist of the Na(V)1.7 sodium channel” (J Med Chem, 2015)
Bridge positions count the residues as written; N and C are the ends. Peptide text beside a SMILES is read from it.

Assays:
[1] = target: Sodium channel protein type 9 subunit alpha (Homo sapiens, UniProt Q15858); test: Inhibition of human NaV1.7 at -140 mV holding potential by whole-cell patch clamp assay
[2] = target: Sodium channel protein type 5 subunit alpha (Homo sapiens, UniProt Q14524); test: Inhibition of human NaV1.5 at -140 mV holding potential by whole-cell patch clamp assay
Sodium channel protein type 5 subunit alpha, sequence (Q14524 whole entry): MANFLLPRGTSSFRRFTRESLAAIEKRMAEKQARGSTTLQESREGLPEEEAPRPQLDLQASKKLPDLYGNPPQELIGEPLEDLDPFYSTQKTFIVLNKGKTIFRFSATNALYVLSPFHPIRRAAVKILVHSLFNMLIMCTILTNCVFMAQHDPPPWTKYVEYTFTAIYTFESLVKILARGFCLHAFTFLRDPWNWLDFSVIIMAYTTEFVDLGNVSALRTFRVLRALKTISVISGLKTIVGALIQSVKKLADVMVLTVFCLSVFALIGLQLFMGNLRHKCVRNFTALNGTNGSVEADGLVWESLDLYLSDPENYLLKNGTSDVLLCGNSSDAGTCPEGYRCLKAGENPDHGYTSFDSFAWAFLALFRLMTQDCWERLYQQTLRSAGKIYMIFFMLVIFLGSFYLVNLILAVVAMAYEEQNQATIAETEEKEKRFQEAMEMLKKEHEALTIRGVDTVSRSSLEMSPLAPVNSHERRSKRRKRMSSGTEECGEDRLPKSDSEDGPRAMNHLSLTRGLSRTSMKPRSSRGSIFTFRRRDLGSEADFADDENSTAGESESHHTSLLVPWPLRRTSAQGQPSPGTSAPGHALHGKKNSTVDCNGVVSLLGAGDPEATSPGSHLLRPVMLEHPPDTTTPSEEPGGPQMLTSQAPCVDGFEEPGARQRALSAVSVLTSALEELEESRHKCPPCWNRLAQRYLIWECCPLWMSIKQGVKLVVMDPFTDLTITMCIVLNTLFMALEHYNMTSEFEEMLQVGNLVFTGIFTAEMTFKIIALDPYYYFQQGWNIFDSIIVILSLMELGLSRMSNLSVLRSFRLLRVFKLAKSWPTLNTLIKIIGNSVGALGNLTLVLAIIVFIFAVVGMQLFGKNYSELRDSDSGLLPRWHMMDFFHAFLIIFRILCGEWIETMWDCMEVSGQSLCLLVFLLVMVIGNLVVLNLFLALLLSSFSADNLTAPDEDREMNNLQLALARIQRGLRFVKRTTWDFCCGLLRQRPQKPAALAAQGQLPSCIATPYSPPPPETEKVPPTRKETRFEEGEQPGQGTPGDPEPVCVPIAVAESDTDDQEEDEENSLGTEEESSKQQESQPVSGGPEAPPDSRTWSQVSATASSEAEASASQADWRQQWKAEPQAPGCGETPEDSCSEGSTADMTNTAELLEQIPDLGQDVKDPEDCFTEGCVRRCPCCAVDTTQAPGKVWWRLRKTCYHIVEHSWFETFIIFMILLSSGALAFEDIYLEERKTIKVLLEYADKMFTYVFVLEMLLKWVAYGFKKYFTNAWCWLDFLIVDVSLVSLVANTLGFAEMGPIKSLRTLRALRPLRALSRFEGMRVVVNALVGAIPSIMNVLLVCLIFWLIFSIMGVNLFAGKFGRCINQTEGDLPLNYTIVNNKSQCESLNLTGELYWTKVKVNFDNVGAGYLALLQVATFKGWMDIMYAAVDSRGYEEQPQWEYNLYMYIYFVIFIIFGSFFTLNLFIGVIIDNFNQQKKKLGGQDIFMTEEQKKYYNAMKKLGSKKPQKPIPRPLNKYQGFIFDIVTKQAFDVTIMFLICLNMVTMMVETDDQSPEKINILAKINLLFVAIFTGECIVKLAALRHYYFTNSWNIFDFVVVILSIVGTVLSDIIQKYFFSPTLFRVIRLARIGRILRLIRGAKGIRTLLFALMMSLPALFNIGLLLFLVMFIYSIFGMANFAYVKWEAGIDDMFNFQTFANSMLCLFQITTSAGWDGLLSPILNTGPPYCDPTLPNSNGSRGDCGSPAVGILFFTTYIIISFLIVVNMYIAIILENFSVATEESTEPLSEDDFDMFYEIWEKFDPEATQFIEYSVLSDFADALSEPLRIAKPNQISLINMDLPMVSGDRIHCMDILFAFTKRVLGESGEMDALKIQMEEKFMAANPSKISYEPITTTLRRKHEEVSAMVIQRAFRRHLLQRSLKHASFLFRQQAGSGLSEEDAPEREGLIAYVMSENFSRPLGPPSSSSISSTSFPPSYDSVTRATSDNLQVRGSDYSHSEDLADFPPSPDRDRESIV

Sodium channel protein type 9 subunit alpha, sequence (Q15858 whole entry): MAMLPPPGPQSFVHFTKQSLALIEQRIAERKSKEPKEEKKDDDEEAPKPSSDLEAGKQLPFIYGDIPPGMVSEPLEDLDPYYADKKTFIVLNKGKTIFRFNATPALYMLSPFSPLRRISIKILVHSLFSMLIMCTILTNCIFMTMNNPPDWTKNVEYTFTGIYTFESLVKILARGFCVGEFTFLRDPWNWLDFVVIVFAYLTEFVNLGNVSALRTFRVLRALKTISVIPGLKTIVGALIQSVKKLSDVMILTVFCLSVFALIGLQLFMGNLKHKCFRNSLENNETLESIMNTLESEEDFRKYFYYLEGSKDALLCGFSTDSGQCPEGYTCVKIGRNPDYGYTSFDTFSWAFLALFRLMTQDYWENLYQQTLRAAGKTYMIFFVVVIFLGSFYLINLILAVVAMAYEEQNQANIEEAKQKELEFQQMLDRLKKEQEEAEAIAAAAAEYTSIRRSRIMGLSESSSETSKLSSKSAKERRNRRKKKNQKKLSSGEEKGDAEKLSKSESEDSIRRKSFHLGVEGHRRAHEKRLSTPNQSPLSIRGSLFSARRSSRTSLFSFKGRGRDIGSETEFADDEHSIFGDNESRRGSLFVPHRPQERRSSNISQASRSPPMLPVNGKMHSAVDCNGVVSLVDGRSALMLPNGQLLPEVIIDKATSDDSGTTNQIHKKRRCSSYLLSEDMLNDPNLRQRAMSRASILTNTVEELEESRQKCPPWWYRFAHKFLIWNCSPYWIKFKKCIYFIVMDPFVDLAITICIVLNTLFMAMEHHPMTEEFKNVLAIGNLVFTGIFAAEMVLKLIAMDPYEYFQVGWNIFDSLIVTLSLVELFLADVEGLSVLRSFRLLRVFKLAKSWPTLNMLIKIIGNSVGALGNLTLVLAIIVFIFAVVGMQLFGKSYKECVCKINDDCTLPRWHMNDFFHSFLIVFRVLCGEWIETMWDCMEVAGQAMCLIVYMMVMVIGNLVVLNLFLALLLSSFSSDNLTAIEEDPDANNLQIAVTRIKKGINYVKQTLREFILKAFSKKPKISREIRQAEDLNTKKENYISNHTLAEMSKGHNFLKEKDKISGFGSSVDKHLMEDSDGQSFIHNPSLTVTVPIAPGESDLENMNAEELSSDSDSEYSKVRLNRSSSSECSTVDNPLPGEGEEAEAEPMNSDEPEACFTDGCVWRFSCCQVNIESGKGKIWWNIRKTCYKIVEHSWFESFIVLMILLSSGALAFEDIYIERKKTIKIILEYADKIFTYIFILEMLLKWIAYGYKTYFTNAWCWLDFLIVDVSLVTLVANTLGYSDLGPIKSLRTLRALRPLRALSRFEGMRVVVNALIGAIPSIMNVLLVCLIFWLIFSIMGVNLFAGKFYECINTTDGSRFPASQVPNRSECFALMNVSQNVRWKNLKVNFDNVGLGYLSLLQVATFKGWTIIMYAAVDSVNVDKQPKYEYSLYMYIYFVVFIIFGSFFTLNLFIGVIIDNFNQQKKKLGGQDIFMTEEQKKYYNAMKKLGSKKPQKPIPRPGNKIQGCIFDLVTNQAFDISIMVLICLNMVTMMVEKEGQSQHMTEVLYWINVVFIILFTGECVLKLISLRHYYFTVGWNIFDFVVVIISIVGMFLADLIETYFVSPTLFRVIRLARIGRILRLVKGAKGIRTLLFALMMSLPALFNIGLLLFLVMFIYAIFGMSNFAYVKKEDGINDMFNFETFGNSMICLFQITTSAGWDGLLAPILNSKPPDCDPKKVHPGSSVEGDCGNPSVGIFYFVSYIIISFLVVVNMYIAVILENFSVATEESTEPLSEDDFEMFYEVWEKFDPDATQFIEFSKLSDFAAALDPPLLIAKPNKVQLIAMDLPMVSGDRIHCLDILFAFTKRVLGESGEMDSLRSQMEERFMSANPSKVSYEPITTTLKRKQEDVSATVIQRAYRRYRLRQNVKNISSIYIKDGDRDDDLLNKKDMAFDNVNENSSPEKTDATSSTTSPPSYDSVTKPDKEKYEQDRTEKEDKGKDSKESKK

| Structure (SMILES) | IC50 [1] [nM] | IC50 [2] [nM] |
| --- | --- | --- |
| CC[C@H](C)[C@@H]1NC(=O)[C@@H]2CSSC[C@@H]3NC(=O)[C@H](C(C)C)NC(=O)[C@H](CC(C)C)NC(=O)[C@H](CC(N)=O)NC(=O)[C@@H]4CCCN4C(=O)[C@H](CCCNC(=N)N)NC(=O)[C@H](CSSC[C@H](NC(=O)[C@@H](N)CC(=O)O)C(=O)N[C@@H](CC(C)C)C(=O)NCC(=O)N[C@@H](C(C)(C)C)C(=O)N[C@@H](CCSC)C(=O)N[C@@H](CCCNC(=N)N)C(=O)N[C@@H](CCCCN)C(=O)N2)NC(=O)[C@H](CSSC[C@@H](C(=O)N[C@@H](CCCCN)C(=O)N[C@@H](Cc2ccc(O)cc2)C(=O)N[C@H](C(=O)N[C@@H](Cc2ccccc2)C(N)=O)C(C)C)NC(=O)[C@H](Cc2c[nH]c4ccccc24)NC(=O)[C@H](CCCCN)NC(=O)[C@H](Cc2cnc[nH]2)NC(=O)[C@H]([C@@H](C)O)NC(=O)[C@H](CCCNC(=N)N)NC(=O)[C@H](CO)NC3=O)NC(=O)[C@H](CCCCN)NC(=O)[C@H](CC(=O)O)NC(=O)[C@H](CC(N)=O)NC(=O)[C@H](CC(=O)O)NC(=O)[C@@H]2CCCN2C1=O | 24 | > 10000 |
| CC[C@H](C)[C@@H]1NC(=O)[C@@H]2CSSC[C@@H]3NC(=O)[C@H](C(C)C)NC(=O)[C@H](CC(C)C)NC(=O)[C@H](CC(N)=O)NC(=O)[C@@H]4CCCN4C(=O)[C@H](CCCNC(=N)N)NC(=O)[C@H](CSSC[C@H](NC(=O)[C@@H](N)CC(=O)O)C(=O)N[C@@H](CC(C)C)C(=O)NCC(=O)N[C@@H](C4CCCCC4)C(=O)N[C@@H](CCSC)C(=O)N[C@@H](CCCNC(=N)N)C(=O)N[C@@H](CCCCN)C(=O)N2)NC(=O)[C@H](CSSC[C@@H](C(=O)N[C@@H](CCCCN)C(=O)N[C@@H](Cc2ccc(O)cc2)C(=O)N[C@H](C(=O)N[C@@H](Cc2ccccc2)C(N)=O)C(C)C)NC(=O)[C@H](Cc2c[nH]c4ccccc24)NC(=O)[C@H](CCCCN)NC(=O)[C@H](Cc2cnc[nH]2)NC(=O)[C@H]([C@@H](C)O)NC(=O)[C@H](CCCNC(=N)N)NC(=O)[C@H](CO)NC3=O)NC(=O)[C@H](CCCCN)NC(=O)[C@H](CC(=O)O)NC(=O)[C@H](CC(N)=O)NC(=O)[C@H](CC(=O)O)NC(=O)[C@@H]2CCCN2C1=O | 6 | > 10000 |
| CC[C@H](C)[C@@H]1NC(=O)[C@@H]2CSSC[C@@H]3NC(=O)[C@H](C(C)C)NC(=O)[C@H](CC(C)C)NC(=O)[C@H](CC(N)=O)NC(=O)[C@@H]4CCCN4C(=O)[C@H](CCCNC(=N)N)NC(=O)[C@H](CSSC[C@H](NC(=O)[C@@H](N)CC(=O)O)C(=O)N[C@@H](CC(C)C)C(=O)NCC(=O)N[C@@H](CC(C)C)C(=O)N[C@@H](CCSC)C(=O)N[C@@H](CCCNC(=N)N)C(=O)N[C@@H](CCCCN)C(=O)N2)NC(=O)[C@H](CSSC[C@@H](C(=O)N[C@@H](CCCCN)C(=O)N[C@@H](Cc2ccc(O)cc2)C(=O)N[C@H](C(=O)N[C@@H](Cc2ccccc2)C(N)=O)C(C)C)NC(=O)[C@H](Cc2c[nH]c4ccccc24)NC(=O)[C@H](CCCCN)NC(=O)[C@H](Cc2cnc[nH]2)NC(=O)[C@H]([C@@H](C)O)NC(=O)[C@H](CCCNC(=N)N)NC(=O)[C@H](CO)NC3=O)NC(=O)[C@H](CCCCN)NC(=O)[C@H](CC(=O)O)NC(=O)[C@H](CC(N)=O)NC(=O)[C@H](CC(=O)O)NC(=O)[C@@H]2CCCN2C1=O (H-DCLGLMRKCIPDNDKCCRPNLVCSRTHKWCKYVF-NH2; disulfide 2-17, 9-23, 16-30) | 5 | > 10000 |
